pIC50: −log10 of the molar value. Counter-ions that a name gives are not always drawn.
Each compound was assayed against human KDR protein in HEK-293 cells (Homo sapiens (Human), UniProt P35968) (assay: KDR Cell Assay (phospho-KDR in HEK-293 cells expressing inducible KDR)). Conditions: pKDR Cell HEK 10% FBS IC50, HEK-293 cells expressing inducible KDR, VEGF stimulated.
Chain of human KDR protein in HEK-293 cells (P35968 20-1356): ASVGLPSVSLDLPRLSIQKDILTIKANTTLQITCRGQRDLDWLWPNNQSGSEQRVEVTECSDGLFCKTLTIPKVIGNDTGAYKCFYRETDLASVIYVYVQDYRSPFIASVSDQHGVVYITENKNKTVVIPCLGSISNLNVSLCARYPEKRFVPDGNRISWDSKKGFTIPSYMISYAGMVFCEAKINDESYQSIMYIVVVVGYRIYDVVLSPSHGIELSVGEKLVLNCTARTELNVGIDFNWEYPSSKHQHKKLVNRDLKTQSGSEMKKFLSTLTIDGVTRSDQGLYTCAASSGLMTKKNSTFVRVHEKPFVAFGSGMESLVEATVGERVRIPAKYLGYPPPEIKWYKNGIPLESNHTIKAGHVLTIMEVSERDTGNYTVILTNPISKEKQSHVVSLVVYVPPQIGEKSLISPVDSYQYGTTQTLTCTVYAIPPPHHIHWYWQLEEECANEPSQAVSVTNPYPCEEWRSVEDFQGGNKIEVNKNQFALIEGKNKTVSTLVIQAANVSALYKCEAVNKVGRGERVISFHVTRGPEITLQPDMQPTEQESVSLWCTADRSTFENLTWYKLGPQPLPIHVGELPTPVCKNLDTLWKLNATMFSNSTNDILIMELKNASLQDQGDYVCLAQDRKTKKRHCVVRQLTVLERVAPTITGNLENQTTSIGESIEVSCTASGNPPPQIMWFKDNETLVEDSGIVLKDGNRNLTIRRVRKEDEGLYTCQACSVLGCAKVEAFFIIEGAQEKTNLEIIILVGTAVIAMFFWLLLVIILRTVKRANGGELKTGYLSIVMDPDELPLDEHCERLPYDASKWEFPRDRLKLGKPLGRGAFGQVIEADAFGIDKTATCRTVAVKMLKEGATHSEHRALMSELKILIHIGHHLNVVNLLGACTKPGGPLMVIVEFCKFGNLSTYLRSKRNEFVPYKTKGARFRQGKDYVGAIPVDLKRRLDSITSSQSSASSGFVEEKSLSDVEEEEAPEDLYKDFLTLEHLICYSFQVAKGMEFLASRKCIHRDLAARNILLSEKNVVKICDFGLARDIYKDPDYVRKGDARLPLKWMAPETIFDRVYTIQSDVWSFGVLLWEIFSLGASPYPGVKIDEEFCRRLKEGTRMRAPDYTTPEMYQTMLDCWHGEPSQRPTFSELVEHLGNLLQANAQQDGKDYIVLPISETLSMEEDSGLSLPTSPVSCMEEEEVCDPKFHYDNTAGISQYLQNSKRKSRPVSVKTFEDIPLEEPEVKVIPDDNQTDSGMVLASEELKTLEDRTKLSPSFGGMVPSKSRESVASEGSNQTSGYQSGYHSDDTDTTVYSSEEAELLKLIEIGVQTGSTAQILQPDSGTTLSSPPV
Format: cell-based
Method: The cellular potency of a compound inhibiting KDR kinase was determined in HEK-293 cells expressing an inducible human KDR protein. […] The cells were incubated for 1 hour with test compound in DMEM at a final DMSO concentration of 0.25%. […] The media was aspirated and 35 μL of a 1× lysis buffer was added. […] The lysate was stored at −80° C. until ready for assay. Phospho-KDR was measured using a phospho-KDR kit (Catalog #K151BOC) purchased from Meso Scale Diagnostics (Rockville, Md.) according to the manufacturer's instructions. All values are expressed as percent of percent of control (POC). The POC values were fitted to a 4 parameter logistic curve fit and the IC50 value is point where the curve crosses 50 POC.
`Cc1ncc(-c2cc(-c3ccc(N4CCN(Cc5ccccc5)CC4)nc3)c3c(C#N)cnn3c2)o1` [Example 628, 4-(6-(4-benzylpiperazin-1-yl)pyridin-3-yl)-6-(2-methyloxazol-5-yl)pyrazolo[1,5-a]pyridine-3-carbonitrile] gave a pIC50 of no more than 5.30.
Work on `Cn1cc(-c2cc(-c3ccc(N4CC5(CCOC5)C4)nc3)c3c(C#N)cnn3c2)cn1` [Example 528, 4-(6-(6-oxa-2-azaspiro[3.4]octan-2-yl)pyridin-3-yl)-6-(1-methyl-1H-pyrazol-4-yl)pyrazolo[1,5-a]pyridine-3-carbonitrile 2,2,2-trifluoroacetate] yielded a pIC50 of 5.78.
With `Cn1cc(-c2cc(-c3ccc(N4CC5(CN(C(=O)OC(C)(C)C)C5)C4)nc3)c3c(C#N)cnn3c2)cn1` [Example 526, tert-butyl 6-(5-(3-cyano-6-(1-methyl-1H-pyrazol-4-yl)pyrazolo[1,5-a]pyridin-4-yl)pyridin-2-yl)-2,6-diazaspiro[3.3]heptane-2-carboxylate] the pIC50 was no more than 5.30.
For `CC(C)N1CC(n2cc(-c3cc(-c4ccc(N5CCN(Cc6ccccc6)CC5)nc4)c4c(C#N)cnn4c3)cn2)C1` [Example 596, 4-(6-(4-benzylpiperazin-1-yl)pyridin-3-yl)-6-(1-(1-isopropylazetidin-3-yl)-1H-pyrazol-4-yl)pyrazolo[1,5-a]pyridine-3-carbonitrile], the pIC50 was 6.52.
For `Cn1cc(-c2cc(-c3ccc(N4CCC(Cc5ccccc5)CC4)nc3)c3c(C#N)cnn3c2)cn1` [Example 535, 4-(6-(4-benzylpiperidin-l-yl)pyridin-3-yl)-6-(1-methyl-1H-pyrazol-4-yl)pyrazolo[1,5-a]pyridine-3-carbonitrile], the pIC50 was 6.43.
For `Cn1cc(-c2cc(-c3ccc(N4CCN(Cc5ccccn5)CC4)nc3)c3c(C#N)cnn3c2)cn1` [Example 473, 6-(1-methyl-1H-pyrazol-4-yl)-4-(6-(4-(pyridine-2-ylmethyl)piperazin-1-yl)pyridin-3-yl)pyrazolo[1,5-a]pyridine-3-carbonitrile], the pIC50 was 6.01.
For `Cn1cc(-c2cc(-c3ccc(N4CCN(Cc5cncc(Cl)c5)CC4)nc3)c3c(C#N)cnn3c2)cn1` [Example 430, 4-(6-(4-((5-chloropyridin-3-yl)methyl)piperazin-1-yl)pyridin-3-yl)-6-(1-methyl-1H-pyrazol-4-yl)pyrazolo[1,5-a]pyridine-3-carbonitrile], the pIC50 was 6.10.
`Cn1cc(-c2cc(-c3ccc(N4CCN(Cc5c(F)cccc5F)CC4)nc3)c3c(C#N)cnn3c2)cn1` [Example 441, 4-(6-(4-(2,6-difluorobenzyl)piperazin-1-yl)pyridine-3-yl)-6-(1-methyl-1H-pyrazol-4-yl)pyrazolo[1,5-a]pyridine-3-carbonitrile] gave a pIC50 of 6.24.
With `Cn1cc(-c2cc(-c3ccc(N4CCC5(CCN(C(=O)OC(C)(C)C)C5)C4)nc3)c3c(C#N)cnn3c2)cn1` (stereo not drawn) [Example 519, tert-butyl 7-(5-(3-cyano-6-(1-methyl-1H-pyrazol-4-yl)pyrazolo[1,5-a]pyridin-4-yl)pyridin-2-yl)-2,7-diazaspiro[4.4]nonane-2-carboxylate] the pIC50 was 5.90.
In the case of `Cn1cc(-c2cc(-c3ccc(N4CCN(CC(F)(F)F)CC4)nc3)c3c(C#N)cnn3c2)cn1` [Example 419, 6-(1-methyl-1H-pyrazol-4-yl)-4-(6-(4-(2,2,2-trifluoroethyl)piperazin-1-yl)pyridin-3-yl)pyrazolo[1,5-a]pyridine-3-carbonitrile], the pIC50 was 5.72.
For `Cn1cc(-c2cc(-c3ccc(C4CCCN(Cc5ccccc5)C4)nc3)c3c(C#N)cnn3c2)cn1` (stereo not drawn) [Example 581, 4-(6-(1-benzylpiperidin-3-yl)pyridine-3-yl)-6-(1-methyl-1H-pyrazol-4-yl)pyrazolo[1,5-a]pyridine-3-carbonitrile], the pIC50 was 6.17.
In the case of `Cn1cc(-c2cc(-c3ccc(N4CCN(C(=O)N5CC6C(C5)C6(C)C)CC4)nc3)c3c(C#N)cnn3c2)cn1` (stereo not drawn) [Example 384, 4-(6-(4-(6,6-dimethyl-3-azabicyclo[3.1.0]hexane-3-carbonyl)piperazin-1-yl)pyridin-3-yl)-6-(1-methyl-1H-pyrazol-4-yl)pyrazolo[1,5-a]pyridine-3-carbonitrile], the pIC50 was 5.98.

Same assay, conditions: pKDR Cell HEK 10% FBS IC50, HEK-293 cells expressing inducible KDR, VEGF stimulated, 10% FBS
`Cn1cc(-c2cc(-c3ccc(N4CCC(NC(=O)[C@@H]5CCCO5)CC4)nc3)c3c(C#N)cnn3c2)cn1` [Example 182, (5)-N-(1-(5-(3-cyano-6-(1-methyl-1H-pyrazol-4-yl)pyrazolo[1,5-a]pyridin-4-yl)pyridin-2-yl)piperidin-4-yl)tetrahydrofuran-2-carboxamide] showed a pIC50 of 6.25.
For `Cn1cc(-c2cc(-c3ccc(N4CCN(C(=O)c5c(F)cccc5F)CC4)nc3)c3c(C#N)cnn3c2)cn1` [Example 51, 4-(6-(4-(2,6-difluorobenzoyl)piperazin-1-yl)pyridin-3-yl)-6-(1-methyl-1H-pyrazol-4-yl)pyrazolo[1,5-a]pyridine-3-carbonitrile 2,2,2-trifluoroacetate], the pIC50 was 6.57.
In the case of `Cn1cc(-c2cc(-c3ccc(N4CCN(C(=O)[C@H](O)c5ccccc5Cl)CC4)nc3)c3ccnn3c2)cn1` [Example 320, (R)-2-(2-chlorophenyl)-2-hydroxy-1-(4-(5-(6-(1-methyl-1H-pyrazol-4-yl)pyrazolo[1,5-a]pyridin-4-yl)pyridin-2-yl)piperazin-1-yl)ethanone], the pIC50 was no more than 5.30.
Work on `Cn1cc(-c2cc(-c3ccc(N4CCN(C(=O)C5(c6ccccc6)CC5)CC4)nc3)c3c(C#N)cnn3c2)cn1` [Example 25, 6-(1-methyl-1H-pyrazol-4-yl)-4-(6-(4-(1-phenylcyclopropane-1-carbonyl)piperazin-1-yl)pyridin-3-yl)pyrazolo[1,5-a]pyridine-3-carbonitrile] yielded a pIC50 of 6.57.
`Cn1cc(-c2cc(-c3ccc(N4[C@@H]5CC[C@H]4C[C@@H](N)C5)nc3)c3c(C#N)cnn3c2)cn1` [Example 195, 4-(6-((1R,3r,5S)-3-amino-8-azabicyclo[3.2.1]octan-8-yl)pyridin-3-yl)-6-(1-methyl-1H-pyrazol-4-yl)pyrazolo[1,5-a]pyridine-3-carbonitrile dihydrochloride] gave a pIC50 of 6.61.
`Cn1cc(-c2cc(-c3ccc(N4CC5CCC(C4)N5)nc3)c3c(C#N)cnn3c2)cn1` [Example 174, 4-(6-(3,8-diazabicyclo[3.2.1]octan-3-yl)pyridin-3-yl)-6-(1-methyl-1H-pyrazol-4-yl)pyrazolo[1,5-a]pyridine-3-carbonitrile dihydrochloride] gave a pIC50 of 5.91.
With `Cn1cc(-c2cc(-c3ccc(N4CCN(CC(O)c5c(F)cccc5F)CC4)nc3)c3c(C#N)cnn3c2)cn1` (stereo not drawn) [Example 154, 4-(6-(4-(2-(2,6-difluorophenyl)-2-hydroxyethyl)piperazin-1-yl)pyridin-3-yl)-6-(1-methyl-1H-pyrazol-4-yl)pyrazolo[1,5-a]pyridine-3-carbonitrile] the pIC50 was 6.81.
`N#Cc1cnn2cc(-c3cnn(C(F)F)c3)cc(-c3ccc(N4CCN(C(=O)[C@H](O)c5ccccc5)CC4)nc3)c12` [Example 268, (R)-6-(1-(difluoromethyl)-1H-pyrazol-4-yl)-4-(6-(4-(2-hydroxy-2-phenylacetyl)piperazin-1-yl)pyridin-3-yl)pyrazolo[1,5-a]pyridine-3-carbonitrile] was tested, and the pIC50 was 6.30.
`CC(C)CC(=O)N1CCN(c2ccc(-c3cc(-c4ccn(C)n4)cn4ncc(C#N)c34)cn2)CC1` [Example 273, 6-(1-methyl-1H-pyrazol-3-yl)-4-(6-(4-(3-methylbutanoyl)piperazin-1-yl)pyridin-3-yl)pyrazolo[1,5-a]pyridine-3-carbonitrile] was tested, and the pIC50 was 5.67.
For `CO[C@H]1CCN(C(=O)N2CCN(c3ccc(-c4cc(-c5cnn(C(F)F)c5)cn5ncc(C#N)c45)cn3)CC2)C1` [Example 269, (S)-6-(1-(difluoromethyl)-1H-pyrazol-4-yl)-4-(6-(4-(3-methoxypyrrolidine-1-carbonyl)piperazin-1-yl)pyridin-3-yl)pyrazolo[1,5-a]pyridine-3-carbonitrile], the pIC50 was 5.77.
Work on `CO[C@H]1CCN(C(=O)N2CCN(c3ccc(-c4cc(-c5cnn(C)c5)cn5ncc(C#N)c45)cn3)CC2)C1` [Example 97, (S)-4-(6-(4-(3-methoxypyrrolidine-1-carbonyl)piperazin-1-yl)pyridin-3-yl)-6-(1-methyl-1H-pyrazol-4-yl)pyrazolo[1,5-a]pyridine-3-carbonitrile] yielded a pIC50 of 6.12.
`Cn1cc(-c2cc(-c3ccc(N4CCN(C(=O)NC5CC5)CC4)nc3)c3c(C#N)cnn3c2)cn1` [Example 131, 4-(5-(3-cyano-6-(1-methyl-1H-pyrazol-4-yl)pyrazolo[1,5-a]pyridin-4-yl)pyridin-2-yl)-N-cyclopropylpiperazine-1-carboxamide 2,2,2-trifluoroacetate] gave a pIC50 of 6.35.
In the case of `Cn1cc(-c2cc(-c3ccc(N4CCN(S(C)(=O)=O)CC4)nc3)c3c(C#N)cnn3c2)cn1` [Example 88, 6-(1-methyl-1H-pyrazol-4-yl)-4-(6-(4-(methylsulfonyl)piperazin-1-yl)pyridin-3-yl)pyrazolo[1,5-a]pyridine-3-carbonitrile], the pIC50 was 6.71.
`Cn1cc(-c2cc(-c3ccc(N4CCN(C(=O)Cc5ccc(F)cn5)CC4)nc3)c3c(C#N)cnn3c2)cn1` [Example 360, 4-(6-(4-(2-(5-fluoropyridin-2-yl)acetyl)piperazin-1-yl)pyridin-3-yl)-6-(1-methyl-1H-pyrazol-4-yl)pyrazolo[1,5-a]pyridine-3-carbonitrile bis(2,2,2-trifluoroacetate)] was tested, and the pIC50 was 6.41.
`Cn1cc(-c2cc(-c3cnc(N4CCN(C(=O)[C@H](O)c5ccccc5)CC4)nc3)c3c(C#N)cnn3c2)cn1` [Example 282, (R)-4-(2-(4-(2-hydroxy-2-phenylacetyl)piperazin-1-yl)pyrimidin-5-yl)-6-(1-methyl-1H-pyrazol-4-yl)pyrazolo[1,5-a]pyridine-3-carbonitrile] showed a pIC50 of 6.18.
